Results as given in ChEMBL document CHEMBL5465560, “Selectivity Literature for EUbOPEN Chemogenomic Library” (2024).

What was measured:
[1] = molecular target: T1, Protein kinase C epsilon type (Homo sapiens) (UniProt Q02156); assay: Selectivity interaction (KinomeScan (DiscoverX)) EUB0000311b PRKCE; conditions: at 1 µM
T1 sequence (whole entry): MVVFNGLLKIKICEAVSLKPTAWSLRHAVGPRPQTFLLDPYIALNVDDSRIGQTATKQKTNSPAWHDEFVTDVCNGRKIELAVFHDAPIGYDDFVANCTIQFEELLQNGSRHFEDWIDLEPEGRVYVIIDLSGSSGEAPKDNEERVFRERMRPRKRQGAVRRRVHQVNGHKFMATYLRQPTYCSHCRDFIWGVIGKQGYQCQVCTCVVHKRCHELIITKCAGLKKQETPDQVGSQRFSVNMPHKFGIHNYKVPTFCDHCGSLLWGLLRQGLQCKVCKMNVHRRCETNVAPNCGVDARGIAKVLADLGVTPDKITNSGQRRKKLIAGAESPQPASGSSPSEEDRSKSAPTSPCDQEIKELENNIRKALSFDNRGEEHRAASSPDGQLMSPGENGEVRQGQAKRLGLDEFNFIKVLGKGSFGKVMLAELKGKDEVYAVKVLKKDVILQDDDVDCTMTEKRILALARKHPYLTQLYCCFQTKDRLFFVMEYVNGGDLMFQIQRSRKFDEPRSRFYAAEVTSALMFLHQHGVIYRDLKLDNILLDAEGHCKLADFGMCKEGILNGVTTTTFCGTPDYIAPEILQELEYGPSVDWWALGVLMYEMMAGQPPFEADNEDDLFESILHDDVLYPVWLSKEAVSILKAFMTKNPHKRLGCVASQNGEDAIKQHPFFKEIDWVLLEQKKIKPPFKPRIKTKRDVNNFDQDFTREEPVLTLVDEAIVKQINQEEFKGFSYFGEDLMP

[2] = molecular target: Serine/threonine-protein kinase Chk2 (Homo sapiens) (UniProt O96017); assay: Selectivity interaction (KinomeScan (DiscoverX)) EUB0001049a CHEK2; conditions: at 1 µM
[3] = molecular target: Angiopoietin-1 receptor (Homo sapiens) (UniProt Q02763); assay: Selectivity interaction (KinomeScan (DiscoverX)) EUB0000666a TEK; conditions: at 10 µM
[4] = tested on: Tyrosine-protein kinase ABL1 (Homo sapiens), P00519 [F317L]; assay: Selectivity interaction (KinomeScan (DiscoverX)) EUB0001079a ABL1; conditions: at 1 µM
Tyrosine-protein kinase ABL1 (Homo sapiens), P00519 [F317L], sequence (P00519 whole entry F317L): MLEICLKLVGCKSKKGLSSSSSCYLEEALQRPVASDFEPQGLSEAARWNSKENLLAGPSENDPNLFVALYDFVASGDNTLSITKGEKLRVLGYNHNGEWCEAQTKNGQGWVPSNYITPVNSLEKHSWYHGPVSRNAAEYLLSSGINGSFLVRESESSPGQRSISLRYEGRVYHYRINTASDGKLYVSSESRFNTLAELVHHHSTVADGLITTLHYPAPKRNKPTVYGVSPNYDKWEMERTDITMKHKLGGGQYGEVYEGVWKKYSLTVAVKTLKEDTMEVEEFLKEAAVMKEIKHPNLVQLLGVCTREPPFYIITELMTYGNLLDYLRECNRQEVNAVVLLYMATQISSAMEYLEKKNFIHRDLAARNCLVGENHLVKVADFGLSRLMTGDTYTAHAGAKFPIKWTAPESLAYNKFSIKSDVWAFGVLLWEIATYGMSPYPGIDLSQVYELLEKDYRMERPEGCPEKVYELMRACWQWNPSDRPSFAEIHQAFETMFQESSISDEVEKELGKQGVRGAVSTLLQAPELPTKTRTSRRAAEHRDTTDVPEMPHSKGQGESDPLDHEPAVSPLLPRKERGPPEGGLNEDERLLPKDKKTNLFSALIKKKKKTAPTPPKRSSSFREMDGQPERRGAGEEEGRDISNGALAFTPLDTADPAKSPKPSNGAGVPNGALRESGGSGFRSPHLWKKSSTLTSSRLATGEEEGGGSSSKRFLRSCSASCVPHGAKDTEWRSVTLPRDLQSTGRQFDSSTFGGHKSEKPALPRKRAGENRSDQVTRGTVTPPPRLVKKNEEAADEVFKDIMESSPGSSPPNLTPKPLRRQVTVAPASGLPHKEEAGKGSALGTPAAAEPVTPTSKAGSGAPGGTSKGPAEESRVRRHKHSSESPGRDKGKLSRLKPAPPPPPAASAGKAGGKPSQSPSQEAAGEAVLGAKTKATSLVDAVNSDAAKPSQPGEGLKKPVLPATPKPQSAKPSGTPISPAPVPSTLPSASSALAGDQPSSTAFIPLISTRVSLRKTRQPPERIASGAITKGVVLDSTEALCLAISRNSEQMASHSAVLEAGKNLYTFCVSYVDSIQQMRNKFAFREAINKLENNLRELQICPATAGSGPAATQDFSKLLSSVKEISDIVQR

[5] = molecular target: Ribosomal protein S6 kinase alpha-5 (Homo sapiens) (UniProt O75582); assay: Selectivity interaction (Kinase panel (KiNativ target engagement assay in Jurkat cells)) EUB0001635a RPS6KA5; assay type: cell-based; conditions: Selectivity number of off-targets 0.0, Selectivity number of targets 233.0, Source Knowledge https://www.sciencedirect.com/science/article/pii/S2451945619300674?via%3Dihub, at 1 µM
[6] = molecular target: Casein kinase I isoform gamma-2 (Homo sapiens) (UniProt P78368); conditions: at 10 µM
Casein kinase I isoform gamma-2 (Homo sapiens), sequence (P78368 whole entry, looked up, canonical isoform): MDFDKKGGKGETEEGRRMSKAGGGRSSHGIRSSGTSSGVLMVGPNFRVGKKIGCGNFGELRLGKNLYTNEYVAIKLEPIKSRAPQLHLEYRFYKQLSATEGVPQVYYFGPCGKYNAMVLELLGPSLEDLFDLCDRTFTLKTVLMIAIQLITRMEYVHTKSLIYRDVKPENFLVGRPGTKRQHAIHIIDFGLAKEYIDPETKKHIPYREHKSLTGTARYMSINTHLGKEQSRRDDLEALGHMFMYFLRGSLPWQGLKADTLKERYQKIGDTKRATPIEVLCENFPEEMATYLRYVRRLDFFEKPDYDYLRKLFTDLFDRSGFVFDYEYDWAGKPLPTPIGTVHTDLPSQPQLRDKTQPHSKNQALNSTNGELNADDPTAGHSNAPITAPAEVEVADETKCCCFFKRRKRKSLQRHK

[7] = molecular target: T2, Ephrin type-B receptor 4 (Homo sapiens) (UniProt P54760); assay: Selectivity interaction (KinomeScan (DiscoverX)) EUB0000595a EPHB4; conditions: at 10 µM
T2 sequence (whole entry): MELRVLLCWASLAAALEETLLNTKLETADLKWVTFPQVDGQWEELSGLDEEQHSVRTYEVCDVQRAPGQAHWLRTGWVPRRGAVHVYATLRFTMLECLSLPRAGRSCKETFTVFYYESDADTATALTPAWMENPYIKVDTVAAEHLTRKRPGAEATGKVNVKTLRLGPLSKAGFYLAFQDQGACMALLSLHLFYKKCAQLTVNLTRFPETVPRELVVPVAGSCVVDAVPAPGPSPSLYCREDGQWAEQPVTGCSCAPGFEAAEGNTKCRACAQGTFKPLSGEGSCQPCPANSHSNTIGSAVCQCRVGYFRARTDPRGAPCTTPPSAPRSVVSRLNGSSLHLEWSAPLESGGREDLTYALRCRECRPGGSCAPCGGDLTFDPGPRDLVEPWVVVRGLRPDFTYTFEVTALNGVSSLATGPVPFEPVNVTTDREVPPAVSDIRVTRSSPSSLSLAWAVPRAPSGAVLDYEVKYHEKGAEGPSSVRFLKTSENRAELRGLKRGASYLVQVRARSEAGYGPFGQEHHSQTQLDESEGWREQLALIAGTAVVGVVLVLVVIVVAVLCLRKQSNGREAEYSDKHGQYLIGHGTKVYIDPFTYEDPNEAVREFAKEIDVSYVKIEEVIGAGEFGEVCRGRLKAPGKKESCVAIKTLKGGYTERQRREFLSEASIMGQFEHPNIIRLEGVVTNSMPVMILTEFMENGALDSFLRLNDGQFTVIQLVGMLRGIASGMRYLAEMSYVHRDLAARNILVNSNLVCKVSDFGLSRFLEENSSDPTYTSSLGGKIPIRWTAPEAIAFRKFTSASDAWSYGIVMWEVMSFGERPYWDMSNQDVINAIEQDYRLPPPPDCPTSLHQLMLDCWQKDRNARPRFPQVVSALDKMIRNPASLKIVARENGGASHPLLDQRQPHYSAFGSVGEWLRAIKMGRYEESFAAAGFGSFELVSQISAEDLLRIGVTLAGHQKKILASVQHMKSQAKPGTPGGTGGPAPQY

[8] = molecular target: Cyclin-dependent kinase 9 (Homo sapiens, UniProt P50750); assay: Selectivity interaction (KinomeScan (DiscoverX)) EUB0000092b CDK9; conditions: at 10 µM
Cyclin-dependent kinase 9, sequence (P50750 whole entry): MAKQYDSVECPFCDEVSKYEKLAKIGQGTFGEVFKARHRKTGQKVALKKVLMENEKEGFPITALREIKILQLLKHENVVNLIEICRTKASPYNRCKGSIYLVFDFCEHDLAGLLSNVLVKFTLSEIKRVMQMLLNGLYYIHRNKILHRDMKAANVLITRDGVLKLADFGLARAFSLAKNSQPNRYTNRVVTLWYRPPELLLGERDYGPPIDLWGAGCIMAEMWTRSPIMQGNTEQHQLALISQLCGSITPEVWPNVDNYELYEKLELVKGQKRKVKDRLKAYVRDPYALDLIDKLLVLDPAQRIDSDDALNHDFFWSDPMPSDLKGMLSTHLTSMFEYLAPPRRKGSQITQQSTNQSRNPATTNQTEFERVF

[9] = molecular target: Hepatocyte growth factor receptor (Homo sapiens, UniProt P08581); conditions: at 10 µM
Hepatocyte growth factor receptor, sequence (P08581 whole entry): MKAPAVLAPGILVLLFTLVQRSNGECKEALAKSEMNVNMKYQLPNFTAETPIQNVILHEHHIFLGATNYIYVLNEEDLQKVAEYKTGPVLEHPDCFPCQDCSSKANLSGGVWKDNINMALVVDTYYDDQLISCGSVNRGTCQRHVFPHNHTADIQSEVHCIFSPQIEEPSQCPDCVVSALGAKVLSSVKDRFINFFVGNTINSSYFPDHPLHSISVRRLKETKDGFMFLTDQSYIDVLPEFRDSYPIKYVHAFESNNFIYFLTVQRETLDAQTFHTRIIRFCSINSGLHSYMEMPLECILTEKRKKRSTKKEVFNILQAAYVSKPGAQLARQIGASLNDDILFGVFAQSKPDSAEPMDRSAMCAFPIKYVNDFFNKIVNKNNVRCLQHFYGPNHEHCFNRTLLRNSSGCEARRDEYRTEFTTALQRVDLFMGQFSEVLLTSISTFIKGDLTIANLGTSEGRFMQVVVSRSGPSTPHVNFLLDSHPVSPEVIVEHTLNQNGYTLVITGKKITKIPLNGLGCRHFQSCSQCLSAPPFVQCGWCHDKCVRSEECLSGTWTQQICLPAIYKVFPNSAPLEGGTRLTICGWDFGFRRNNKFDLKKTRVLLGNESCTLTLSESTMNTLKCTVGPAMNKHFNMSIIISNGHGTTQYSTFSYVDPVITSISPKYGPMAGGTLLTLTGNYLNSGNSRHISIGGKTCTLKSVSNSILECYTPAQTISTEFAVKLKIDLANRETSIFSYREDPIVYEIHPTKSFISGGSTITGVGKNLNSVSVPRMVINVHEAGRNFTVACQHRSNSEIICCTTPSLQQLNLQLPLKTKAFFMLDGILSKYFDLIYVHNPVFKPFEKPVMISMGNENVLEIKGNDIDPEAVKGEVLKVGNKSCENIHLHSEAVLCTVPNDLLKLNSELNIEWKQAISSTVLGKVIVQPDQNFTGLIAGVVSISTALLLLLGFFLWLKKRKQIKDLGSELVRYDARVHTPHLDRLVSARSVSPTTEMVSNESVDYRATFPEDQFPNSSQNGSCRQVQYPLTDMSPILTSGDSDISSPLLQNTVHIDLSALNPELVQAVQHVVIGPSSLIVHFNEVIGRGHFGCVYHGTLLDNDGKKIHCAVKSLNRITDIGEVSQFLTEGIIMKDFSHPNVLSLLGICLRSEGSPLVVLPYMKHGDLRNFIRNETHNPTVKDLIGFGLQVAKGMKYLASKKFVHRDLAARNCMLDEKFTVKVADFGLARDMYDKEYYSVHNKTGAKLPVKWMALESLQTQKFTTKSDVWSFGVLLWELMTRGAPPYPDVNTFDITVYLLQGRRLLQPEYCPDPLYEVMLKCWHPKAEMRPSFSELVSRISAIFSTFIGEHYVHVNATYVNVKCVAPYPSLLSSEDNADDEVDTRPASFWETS

[10] = molecular target: Mitogen-activated protein kinase 14 (Homo sapiens, UniProt Q16539)
Mitogen-activated protein kinase 14, sequence (Q16539 whole entry): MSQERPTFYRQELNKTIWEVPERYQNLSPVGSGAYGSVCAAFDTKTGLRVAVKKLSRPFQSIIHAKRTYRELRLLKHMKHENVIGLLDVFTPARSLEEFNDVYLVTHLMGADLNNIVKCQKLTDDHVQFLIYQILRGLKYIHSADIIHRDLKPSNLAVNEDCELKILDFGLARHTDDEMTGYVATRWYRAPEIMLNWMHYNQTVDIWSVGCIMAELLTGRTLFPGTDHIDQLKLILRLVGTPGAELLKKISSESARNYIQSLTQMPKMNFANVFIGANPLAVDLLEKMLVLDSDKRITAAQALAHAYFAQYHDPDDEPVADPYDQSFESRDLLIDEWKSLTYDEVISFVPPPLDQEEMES

[11] = molecular target: Cyclin-dependent kinase 5 (Homo sapiens, UniProt Q00535); assay: Selectivity interaction (KinomeScan (DiscoverX)) EUB0001619a CDK5; conditions: at 1 µM
Cyclin-dependent kinase 5, sequence (Q00535 whole entry, looked up): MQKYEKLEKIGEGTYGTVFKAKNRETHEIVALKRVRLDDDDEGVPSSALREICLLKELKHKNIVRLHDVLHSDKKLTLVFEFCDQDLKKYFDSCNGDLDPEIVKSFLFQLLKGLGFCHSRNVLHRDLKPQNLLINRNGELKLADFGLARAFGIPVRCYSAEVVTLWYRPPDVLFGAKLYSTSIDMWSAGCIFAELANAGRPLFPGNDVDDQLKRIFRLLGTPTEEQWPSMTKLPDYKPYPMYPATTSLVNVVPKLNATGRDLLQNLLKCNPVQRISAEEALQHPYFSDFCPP

[12] = molecular target: Receptor-interacting serine/threonine-protein kinase 2 (Homo sapiens, UniProt O43353); assay: Selectivity interaction (Upstate Kinase Profiler service (Millipore)) EUB0000056c RIPK2; conditions: at 1 µM
Receptor-interacting serine/threonine-protein kinase 2, sequence (O43353 whole entry): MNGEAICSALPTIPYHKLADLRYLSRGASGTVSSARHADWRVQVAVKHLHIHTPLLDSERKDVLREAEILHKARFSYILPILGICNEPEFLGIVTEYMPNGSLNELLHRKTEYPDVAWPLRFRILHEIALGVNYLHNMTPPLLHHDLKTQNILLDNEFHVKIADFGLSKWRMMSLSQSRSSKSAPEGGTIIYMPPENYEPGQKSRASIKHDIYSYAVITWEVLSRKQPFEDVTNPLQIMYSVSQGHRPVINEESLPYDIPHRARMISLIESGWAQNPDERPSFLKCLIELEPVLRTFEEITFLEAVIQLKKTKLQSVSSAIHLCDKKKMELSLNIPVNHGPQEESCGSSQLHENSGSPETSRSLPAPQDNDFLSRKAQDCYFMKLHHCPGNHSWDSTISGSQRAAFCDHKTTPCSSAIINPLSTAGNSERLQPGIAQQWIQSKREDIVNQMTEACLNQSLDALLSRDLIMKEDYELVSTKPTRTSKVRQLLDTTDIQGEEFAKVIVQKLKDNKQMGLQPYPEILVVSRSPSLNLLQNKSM

[13] = molecular target: Calcium/calmodulin-dependent protein kinase kinase 1 (Homo sapiens) (UniProt Q8N5S9); assay: Selectivity interaction (KinomeScan (DiscoverX)) EUB0000607a CAMKK1; conditions: at 10 µM
Calcium/calmodulin-dependent protein kinase kinase 1 (Homo sapiens), sequence (Q8N5S9 whole entry, looked up): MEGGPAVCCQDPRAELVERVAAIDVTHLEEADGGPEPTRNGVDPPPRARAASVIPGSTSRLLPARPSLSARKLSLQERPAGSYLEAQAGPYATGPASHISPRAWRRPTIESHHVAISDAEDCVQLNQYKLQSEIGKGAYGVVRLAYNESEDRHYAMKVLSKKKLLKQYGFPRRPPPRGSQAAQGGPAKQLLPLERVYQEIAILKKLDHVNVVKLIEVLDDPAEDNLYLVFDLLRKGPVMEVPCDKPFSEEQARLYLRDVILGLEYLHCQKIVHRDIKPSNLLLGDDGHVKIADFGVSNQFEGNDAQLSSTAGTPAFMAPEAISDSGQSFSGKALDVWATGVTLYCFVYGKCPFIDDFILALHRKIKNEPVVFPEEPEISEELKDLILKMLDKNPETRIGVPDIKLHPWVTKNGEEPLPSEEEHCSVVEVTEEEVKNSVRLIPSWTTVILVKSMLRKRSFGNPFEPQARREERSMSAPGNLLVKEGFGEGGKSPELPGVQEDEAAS

CCc1ccccc1C(=O)Nc1n[nH]c2c(C)c(F)c(C3C(C#N)=C(C)N(C)C(C)=C3C#N)cc12 [BAY-3827]
% of control [1]: 19%

COc1cc(Nc2nc(C)cc(-c3cnn4nc(OC)ccc34)n2)cc(C(F)(F)F)c1
% of control [2]: 54%

O=C(NOC[C@H](O)CO)c1ccc(F)c(F)c1Nc1ccc(I)cc1F
% of control [3]: 100%

Nc1cnc(N2CCc3cc(S(=O)(=O)Nc4c(F)cc(Cl)cc4F)cc(N4CCCC4=O)c32)nc1 [TP-020n]
% of control [4]: 78%

C=CC(=O)Nc1ccc(C(=O)Nc2[nH]nc3c2CN(C(=O)N[C@H](CN(C)C)c2ccccc2)C3(C)C)cc1
% of engagement [5]: 5.7%

CCN(CC)CCCCNc1ncc2cc(-c3cc(OC)cc(OC)c3)c(NC(=O)NC(C)(C)C)nc2n1
% of control [6]: 100%

COCC(=O)NC/C=C/c1ccc2ncnc(Nc3ccc(Oc4ccc(C)nc4)c(C)c3)c2c1 [CP-724714]
% of control [7]: 95%

CCC(=O)N1CCN(c2ccc(-n3c(=O)ccc4cnc5ccc(-c6cnc7ccccc7c6)cc5c43)cc2C(F)(F)F)CC1
% of control [8]: 94%

Cc1cc([C@@H](C)Nc2ccccc2C(=O)O)c2nc(N3CCOCC3)cc(=O)n2c1 [AZD-6482]
% of control [9]: 86%

CCc1cccc(CC)c1NC(=O)c1nn(C)c2c1CCc1cnc(Nc3ccc(C(=O)NC4CCN(C)CC4)cc3OC(F)(F)F)nc1-2
IC50 [10]: > 10 µM

N#Cc1cccc(-c2c[nH]c3ncnc(N4CCOCC4)c23)c1
% of control [11]: 92%

Cc1ccc(-c2ccc3c(ccc4sc5c(c43)NC[C@@H](C)NC5=O)n2)cn1
% of inhibition [12]: 74%

CNC(=O)Nc1ccc(-c2nc(N3CC4CCC(C3)O4)c3cnn(C4CCC5(CC4)OCCO5)c3n2)cc1
% of control [13]: 100%
